From ChEMBL document CHEMBL5338737, “Lysine-Specific Demethylase 1 Promises to Be a Novel Target in Cancer Drug Resistance: Therapeutic Implications” (J Med Chem, 2023)

How the values were obtained:
[1] = target: T1, Lysine-specific histone demethylase 1A (Homo sapiens, UniProt O60341)
Description: Inhibition of LSD1 (unknown origin)

[2] = target: T1, Lysine-specific histone demethylase 1A; assay: Inhibition of recombinant LSD1 (unknown origin) incubated for 1 hr by fluorescence based analysis

Structure (SMILES)	IC50 [1]	IC50 [2]
C/C(=N\NC(=O)c1cccc(S(=O)(=O)N2CCN(C)CC2)c1)c1cc(Cl)ccc1O	127 nM	–
NC1CC1c1ccc(NC(=O)c2ccc(O)c3ncccc23)cc1 (stereo not drawn)	< 1000 nM	–
COc1cc2c(c(O)c1OC)c(=O)c1ccccc1n2C [ARBORININE]	–	400 nM
